In US8637263B1, “Assay for determination of compounds having anti-emetic activity” (Epiomed Therapeutics, Inc., priority 2010, dated 2014):
Where a name gives a salt, the structure may show the parent alone.

Test system: xylazine-induced emesis
Assay: Xylazine-induced emesis in cats, with defensive behavior/anxiety scoring
Assay type: in vivo
Conditions: for anxiety 15 minutes after treatment / protection against xylazine-induced emesis / cats that vomited: FIG. 1, female cats; for protection against xylazine-induced emesis / cats that vomited: observed 30 min; for Defensive Behavior Scale / Mean Defensive Score / % Protection (vomiting) / Mean Latency (to retch/vomit): cats; for % Protection (vomiting) / Mean Latency (to retch/vomit): xylazine 0.66 mg/kg; for anxiety-inducing effect in test subjects / effectiveness in preventing chemically-induced emesis: administered alone, summary statement
Procedure: […], 0.66 mg/kg xylazine was administered subcutaneously, and the test subjects where then observed for 30 minutes.
Cats not susceptible to motion sickness were assigned to the xylazine testing group. Xylazine stimulates receptors on a pathway different from that used by motion sickness and thus served as a test of the generality of anti-emetic effects observed with motion testing.
Prior to the evaluation of anti-emetic compounds, the production of an emetic response by xylazine in felines was confirmed in the laboratory. Cats were injected subcutaneously with either a freshly prepared solution of 0.66 mg/kg of xylazine in 0.9% sodium chloride or 0.9% sodium chloride vehicle, both adjusted to an injection volume of 0.1 ml/kg.
One week following the confirmation of an emetic response by the cats, subject cats were given either vehicle or test compound/composition in 0.9% sodium chloride or vehicle (injection volume of 0.1 ml/kg) subcutaneously, 20 minutes before administration of xylazine. […] Animals were scored using the vomit scale developed by Suri et al., 1979. Additional experiments were separated by at least a 1 week washout period.
A. Vomit Scale Scoring: • 1. Sal I (licking—parasympathetic): 1 pt • 2. Sal II (drool, thin/frothy—early sympathetic): 2 pts • 3. Sal III (stringy saliva, dangles—sympathetic): 4 pts • 4. Defection: 8 pts • 5. Urination: 8 pts • 6. Wretch/vomiting: 16 pts
B. Defensive Behavior Scale: • 1. No defensiveness: normal behavior; • 2. Slight defensiveness: retreating to the rear of the cage when approached and/or growling when being carried; • 3. […] Strong defensiveness: vigorous clawing and biting to prevent being handled. IV. Statistical Methods
Dose response curves were analyzed by Cochran's Q-test to establish significant effects. Paired comparisons were made using McNemar's test. Tests for line parallelism, relative potency and ED50 were based on least squares regression in a program for pharmacological statistics. The data from the nonparametric rating scale was analyzed using Friedman's analysis of variance model (ANOVA).

[1] = 0.08 mg/kg SC 15 min before xylazine 0.66 mg/kg SC

CCCN(CCC)C1CCc2cccc(O)c2C1 (racemic) [R/S-(+/−)-DPAT, (±)-8-Hydroxy-2-(dipropylamino)tetralin]
anxiety 15 minutes after treatment (0.16 mg/kg SC): moderate level of anxiety | protection against xylazine-induced emesis (0.16 mg/kg SC 15 min before xylazine 0.66 mg/kg SC): 100% | Defensive Behavior Scale (0.16 mg/kg SC): Moderate | Mean Defensive Score (0.16 mg/kg SC): 2.0 | % Protection (vomiting) (0.16 mg/kg SC): 100.00%

CCCN(CCC)[C@@H]1CCc2cccc(O)c2C1 [R-(+)-DPAT, R(+)-8-Hydroxy-2-(dipropylamino)tetralin hydrobromide]
anxiety 15 minutes after treatment (0.08 mg/kg SC): extreme level of anxiety | cats that vomited [1]: none of the cats vomited | anxiety-inducing effect in test subjects: moderate to strong | effectiveness in preventing chemically-induced emesis: 100% | Defensive Behavior Scale (0.02 mg/kg SC): Moderate | Mean Defensive Score (0.02 mg/kg SC): 2.0 | % Protection (vomiting) (0.02 mg/kg SC): 100.00% | Defensive Behavior Scale (0.04 mg/kg SC): Strong | Mean Defensive Score (0.04 mg/kg SC): 3.0 | % Protection (vomiting) (0.04 mg/kg SC): 100.00% | Defensive Behavior Scale (0.08 mg/kg SC): Strong | Mean Defensive Score (0.08 mg/kg SC): 3.0 | % Protection (vomiting) (0.08 mg/kg SC): 100.00%

CCCN(CCC)[C@H]1CCc2cccc(O)c2C1 [S-(−)-DPAT, S(−)-8-Hydroxy-2-(dipropylamino)tetralin hydrobromide]
anxiety 15 minutes after treatment (0.08 mg/kg SC): did not show any anxiety | cats that vomited [1]: 40% | protection against xylazine-induced emesis [1]: 60% | anxiety-inducing effect in test subjects: no anxiety or only slight anxiety | effectiveness in preventing chemically-induced emesis: not fully effective | Defensive Behavior Scale (0.08 mg/kg SC): None | % Protection (vomiting) (0.08 mg/kg SC): 75.00% | Mean Latency (to retch/vomit) (0.08 mg/kg SC): 1.58 min | Defensive Behavior Scale (0.16 mg/kg SC): None | % Protection (vomiting) (0.16 mg/kg SC): 85.71% | Mean Latency (to retch/vomit) (0.16 mg/kg SC): 0.82 min | Defensive Behavior Scale (0.32 mg/kg SC): Slight | Mean Defensive Score (0.32 mg/kg SC): 1.0 | % Protection (vomiting) (0.32 mg/kg SC): 80.00% | Mean Latency (to retch/vomit) (0.32 mg/kg SC): 1.00 min
